≈ marks a conversion by molar mass, not a printed value. Where two headings read alike, the source gives them in different places.
Tests used:
EcIspE [1] = target: T1, EcIspE (Escherichia coli, UniProt P62615); assay: IspE inhibition assay (Promega Kinase-Glo Plus), IC50 determination; assay type: biochemical; conditions: for Ligand efficiency: from IC50 converted to Ki assuming competitive inhibition of the cytidine binding site, KM 150 µM, [CDP-ME] 500 µM, T = 298 K; for fold weaker IC50 / loss in potency compared to the screening hit: relative to parent screening hit (4, 7 or 8); for EcIspE inhibition at 100 µM: typical protein kinase inhibitors evaluated as possible standard inhibitor
T1 construct: made in house
T1 sequence (P62615 whole entry): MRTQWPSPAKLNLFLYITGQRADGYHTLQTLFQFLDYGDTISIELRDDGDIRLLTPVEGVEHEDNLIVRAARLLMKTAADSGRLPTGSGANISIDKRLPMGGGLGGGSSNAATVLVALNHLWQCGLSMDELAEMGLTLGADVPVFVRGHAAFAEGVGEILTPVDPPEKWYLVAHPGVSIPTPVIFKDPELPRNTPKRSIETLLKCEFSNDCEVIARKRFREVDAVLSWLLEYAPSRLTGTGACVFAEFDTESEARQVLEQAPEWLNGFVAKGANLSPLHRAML
Method: Inhibition of EcIspE was measured using the Promega Kinase-Glo®-Plus kit. This kit determines the remaining ATP concentration after the kinase reaction took place by converting luciferin to oxyluciferin via an ATP-dependent luciferase. Oxyluciferin is chemoluminescent and can be detected using a plate reader.
The assay was performed under the following conditions: 90 µM ATP, 500 µM CDP-ME, 200 nM EcIspE in 100 mM Tris-HCl, pH 8.5, 20 mM MgCl2, 2% DMSO, 0.01% (v/v) Triton-X 100. The reaction was carried out in 384-well plates with 25 µl reaction volumes, incubated at 25°C for 180 min, and stopped with 25 µl Kinase-Glo® Plus reagent (Promega, Madison, USA). The chemoluminescence signal was developed for 45 min at room temperature and read out in a plate reader (TopCount, PerkinElmer, USA). To monitor assay performance and to control for inhibition of the luciferase of the Kinase-Glo® Plus kit wells containing either the reaction mixture plus compound 3 or 4 or all ingredients except for CDP-ME were also prepared. Further, as quality control for each assay plate, wells containing the kinase reaction without an inhibitor, and wells containing only ATP in assay buffer were prepared. The signals of these wells were averaged (AVHIGH, AVLOW) and used to calculate the signal to noise ratio (AVHIGH/AVLOW) and Z′ (1− [drawing 1]; SD: standard deviation). The best performance was obtained with an ATP concentration of 90 µM and a CDP-ME concentration of 500 µM (Signal to noise ratio = 3.3, Z′ = 0.69 in assay development). In this setup the ATP and CDP-ME concentrations are ∼0.2×K M and ∼3×K M, respectively. Consequently, the assay can be used to detect ligands binding to both the substrate and co-factor binding sites.
(§1) Compounds were dissolved in DMSO at concentrations between 10 and 200 mM (depending on maximal solubility) and added to the reaction mixture with a final concentration of 2% DMSO (v/v). For compounds where IspE inhibition was indicated, a 1∶3 dilution series in DMSO was prepared and tested in the same endpoint assay. IC50 values were derived by non-linear regression with a 4-parameter fit to the following equation in GraFit (Erithacus Software Ltd., Surrey, UK). [drawing 2] where y: measured signal of assay: ymax: saturated signal: [I]: inhibitor concentration: slope: Hill slope; ymin: background signal of assay.
As the assay was performed at relatively high substrate concentrations (∼3×K M) for ligand efficiency calculations, the measured IC50 values were first converted to K i values.
Ligand efficiencies were calculated using the formula: [drawing 4] where T = 298 K and R = the ideal gas constant.

[2] = Solubility limit in the assay; assay type: physicochemical; conditions: EcIspE assay reaction mixture, aqueous buffer, kinetic from dmso stock; highest concentration tested in the EcIspE assay
From the text: In the modelled binding mode of ligand 4 the pyrrolopyridine scaffold is sandwiched between Tyr24 and Tyr175 and potentially interacts with His25 via three hydrogen bonds (Figure 12a). In addition, the charged amino group in the tetrahydropyrimidinium ring may form a salt bridge interaction with Asp130. Commercially available analogues of this compound were selected to probe possible interactions with Asp130, His25 and the backbone of Lys145 (Figure 13, Table 4). […] Accordingly, these compounds can no longer form a salt bridge with Asp130. In the predicted binding mode of 12 a neutral hydrogen-bond via the thio-urea group is formed with Asp130 instead while 13 is assumed to interact with Lys9 NZ and Thr171 OG1 (Figure 12c and d). […] In order to accommodate 14 in the binding site in a similar binding mode as 4, structural rearrangements are required to avoid a steric clash of the cyclo-propyl moiety with the backbone carbonyl group of Lys145 (Figure 2). An alternative binding mode for this compound is also possible in which the core is flipped by 180° compared to 4 but still forms hydrogen bonds with His25 (Figure 12b). In this orientation, both substituents are solvent exposed.
as §1

EcIspE [3] = target: T1, EcIspE; design: method as in PMID 18033714, PMID 18633530, PMID 18422643, PMID 17361977, PMID 21903402; conditions: substrate-like IspE inhibitors, Figure 4; cited from earlier work
[4] = average of three independent measurements, SD in brackets, 90 µM ATP, 500 µM CDP-ME, 200 nM EcIspE, pH 8.5, n.i. = no inhibition at solubility limit measured, read-out: IC50 [M] (SD)

Compound | IC50 (EcIspE [1]; [4]) [M] | Ligand efficiency (EcIspE [1]) | further results
Nc1n[nH]c(NCc2cccnc2)n1 [Compound 1] | 0.0018 | 0.33 kcal/mol per non-hydrogen atom | –
CNc1ncc(Br)nc1N [Compound 2] | 0.00059 | 0.53 kcal/mol per non-hydrogen atom | –
Oc1csc(Nc2nccs2)n1 [Compound 3] | – | 0.50 kcal/mol per non-hydrogen atom | IC50 (EcIspE [1]; read-out: IC50): 0.00016 M
C1=C(c2c[nH]c3ncccc23)CCNC1 [Compound 4] | – | 0.32 kcal/mol per non-hydrogen atom | IC50 (EcIspE [1]): 0.0015 M
Nc1nc(N)c2[nH]c(=O)[nH]c2n1 [Compound 5] | 0.0023 | 0.37 kcal/mol per non-hydrogen atom | –
Nc1cc(-c2ccco2)[nH]n1 [Compound 6] | 0.0035 | 0.28 kcal/mol per non-hydrogen atom | –
Cc1[nH]c2ccccc2c1C(Nc1ccccn1)c1ccccc1O (centres unmarked) [Compound 7] | – | 0.29 kcal/mol per non-hydrogen atom | IC50 (EcIspE [1]; read-out: IC50): 1.9e-05 M
O=c1c2ccccc2nc(-c2cccnc2)n1-c1ccc(Br)cn1 [Compound 8] | – | 0.35 kcal/mol per non-hydrogen atom | IC50 (EcIspE [1]): 2.5e-06 M
c1csc(NC2CCCCC2)n1 [Compound 9] | 0.0094 | 0.30 kcal/mol per non-hydrogen atom | –
Oc1ccccc1CNc1nccs1 [Compound 10] | 0.0066 | 0.27 kcal/mol per non-hydrogen atom | –
CC(C)Nc1nccs1 [Compound 11] | 0.002 | 0.50 kcal/mol per non-hydrogen atom | –
CNC(=S)N1CC=C(c2c[nH]c3ncccc23)CC1 [Compound 12] | 0.00083 | 0.27 kcal/mol per non-hydrogen atom | –
C1=C(c2c[nH]c3ncccc23)CCN(c2ncccn2)C1 [Compound 13] | 0.00047 | 0.26 kcal/mol per non-hydrogen atom | –
CN1CC=C(c2c(C3CC3)[nH]c3ncccc23)CC1 [Compound 14] | 0.0087 | 0.19 kcal/mol per non-hydrogen atom | fold weaker IC50 / loss in potency compared to the screening hit (EcIspE [1]): 5.8 fold
c1ccc(C[n+]2cccc3cc[nH]c32)cc1 [Compound 15] | – | – | solubility [2]: 1000 to 5000 µM
CC(C)c1cc2cccnc2n1CCCN [Compound 16] | – | – | solubility [2]: 1000 to 5000 µM (≈ 217 to 1090 µg/mL)
CC(C)c1cc2cccnc2n1CCC(=O)O [Compound 17] | – | – | solubility [2]: 1000 to 5000 µM (≈ 232 to 1160 µg/mL)
Cc1[nH]c2ccccc2c1C(Nc1ccccn1)c1cccc(Cl)c1 (centres unmarked) [Compound 18] | – | 0.21 kcal/mol per non-hydrogen atom | –
Cc1[nH]c2ccccc2c1C(Nc1ccccn1)c1ccccc1Cl (centres unmarked) [Compound 19] | 0.0024 | 0.18 kcal/mol per non-hydrogen atom | –
Cc1[nH]c2ccccc2c1C(Nc1cccc(Cl)c1)c1ccccn1 (centres unmarked) [Compound 20] | 0.0025 | 0.18 kcal/mol per non-hydrogen atom | fold weaker IC50 / loss in potency compared to the screening hit (EcIspE [1]): 130 fold
COc1ccc(-n2c(-c3cccnc3)nc3ccccc3c2=O)cc1 [Compound 21] | 2.7e-05 | 0.28 kcal/mol per non-hydrogen atom | fold weaker IC50 / loss in potency compared to the screening hit (EcIspE [1]): 11 fold
O=c1c2ccccc2nc(-c2ccccn2)n1-c1ccccc1 [Compound 22] | 0.00018 | 0.26 kcal/mol per non-hydrogen atom | –
COc1ccc(-n2c(-c3ccncc3)nc3ccccc3c2=O)cc1 [Compound 23] | 0.00032 | 0.23 kcal/mol per non-hydrogen atom | –
Nc1ccn([C@@H]2O[C@H](CNC(=O)Cc3nc4ccccc4[nH]3)[C@@H](O)[C@H]2O)c(=O)n1 [a] | – | – | IC50 (EcIspE [3]): 2000 µM
Nc1ccn([C@@H]2O[C@H](CNC(=O)CCc3nc4ccccc4[nH]3)[C@@H](O)[C@H]2O)c(=O)n1 [b] | – | – | IC50 (EcIspE [3]): 2000 µM
O=C1Cc2c([nH]c3ccc(Br)cc23)-c2ccccc2N1 [kenpaullone, reference compound] | – | – | EcIspE inhibition at 100 µM (EcIspE [1]): none of the compounds showed any EcIspE inhibition
CN[C@@H]1C[C@H]2O[C@@](C)([C@@H]1OC)n1c3ccccc3c3c4c(c5c6ccccc6n2c5c31)C(=O)NC4 [staurosporine, reference compound] | – | – | EcIspE inhibition at 100 µM (EcIspE [1]): none of the compounds showed any EcIspE inhibition
purvalanol [reference compound] | – | – | EcIspE inhibition at 100 µM (EcIspE [1]): none of the compounds showed any EcIspE inhibition
